Assay results: article PMC7277541, “Antimicrobial and Antifungal Activities of Terpene-Derived Palladium Complexes” (Antibiotics, 2020)
Values after ≈ are worked out from the molar mass of the structure shown.

Assay: Cytotoxicity assay (resazurin)
Assay type: cell-based, human
Conditions: human, HEK293 cells (ATCC CRL-1573), HEK293, 20 h incubation, read-out: CC50 (concentration of 50% cytotoxicity)
Description: Screening against bacteria and yeasts for antimicrobial activity and toxicity against mammalian cells was performed in duplicate (n = 2). […] HEK293 cells were counted manually in a Neubauer hemocytometer and added to compound-containing plates (384-well plates, tissue culture treated (TC); Corning CLS3712) giving a final density of 5000 cells/well in a total volume of 50 μL, using Dulbecco's Modified Eagle Medium (DMEM; Life Technologies 11995-073) with 10% Fetal Bovine Serum (FBS; GE SH30084.03). […] Sigma R7017) and after further incubation for 3 h at 37 °C in 5% CO2. Media only was used as negative control and cells without inhibitors as positive growth control. CC50 (concentration at 50% cytotoxicity) values were calculated by curve fitting the inhibition values vs. log(concentration) using a sigmoidal dose-response function, with variable fitting values for bottom, top and slope. Tamoxifen (Sigma Aldrich, Australia T5648) was used as positive inhibitor control on each plate. Selectivity indices (SI) were calculated by dividing the CC50 value (μg/mL) by the MIC value (μg/mL) for a given bacterial or fungal strain.

For CC/C(=C(\c1ccccc1)c1ccc(OCCN(C)C)cc1)c1ccccc1 [tamoxifen, Tamoxifen, reference compound], the CC50 at 20 h was 9 µg/mL (≈ 24.2 µM).
